# Test results from patent publication US8022091B2, “Triazole derivative” (Taisho Pharmaceutical Co., Ltd., priority 2006, dated 2011).
# Biological target: T1, human Edg-1 (S1P1) (Homo sapiens, UniProt P21453)
# T1 construct: expressed in transfected cells; host or cells: HEK-293
# Experiment: S1P1 binding assay: inhibition of [33P]-S1P binding to membrane fraction of HEK-293 cells transferred with the human Edg-1 (S1P1) gene
# Settings: test compound 10 μM; inhibition of [33P]-S1P binding, membrane fraction
# In short: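 Membranes from S1P1-transfected HEK-293 cells incubated 1 h at 30° C in pH 7.4 Tris buffer with fatty acid-free BSA, 0.1 nM [33P]-S1P and test compound (0.1% DMSO). Filter-bound radioactivity was counted; inhibition corrected for binding to untransfected-cell membranes, and IC50 derived from concentration series.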
# T1 sequence (P21453 whole entry): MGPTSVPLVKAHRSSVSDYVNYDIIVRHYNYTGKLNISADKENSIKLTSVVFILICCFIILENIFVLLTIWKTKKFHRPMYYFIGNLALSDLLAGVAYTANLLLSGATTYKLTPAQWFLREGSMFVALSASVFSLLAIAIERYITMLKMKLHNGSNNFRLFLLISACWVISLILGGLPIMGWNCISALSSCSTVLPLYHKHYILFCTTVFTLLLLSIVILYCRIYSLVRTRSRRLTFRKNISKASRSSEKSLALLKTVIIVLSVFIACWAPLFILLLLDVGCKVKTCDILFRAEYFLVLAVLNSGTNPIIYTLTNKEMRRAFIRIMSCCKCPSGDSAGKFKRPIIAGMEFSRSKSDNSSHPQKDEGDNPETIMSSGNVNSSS
row,SMILES,inhibition at 10 µM [%]
1,CCn1c(Oc2ccc3cc[nH]c3c2)nnc1[C@@H](C)NS(=O)(=O)c1ccc(C#N)cc1 [Compound 395],79.1
2,CCn1c(Oc2ccc3cc[nH]c3c2)nnc1[C@@H](C)NS(=O)(=O)c1ccc(Cl)cc1Cl [Compound 398],84.7
3,CCn1c(Oc2ccc3cc[nH]c3c2)nnc1[C@@H](C)NS(=O)(=O)c1cc(OC)ccc1OC [Compound 400],75.3
4,CCn1c(Oc2ccc3cc[nH]c3c2)nnc1[C@@H](C)NS(=O)(=O)c1cccc(Cl)c1 [Compound 403],72.5
5,CCn1c(Oc2ccc3cc[nH]c3c2)nnc1[C@@H](C)NS(=O)(=O)c1ccc(C(C)C)cc1 [Compound 404],60.2
6,CCn1c(Oc2ccc3cc[nH]c3c2)nnc1[C@@H](C)NS(=O)(=O)c1cc(F)cc(Cl)c1C [Compound 405],61.4
7,CCc1cc(Br)ccc1S(=O)(=O)N[C@H](C)c1nnc(Oc2ccc3cc[nH]c3c2)n1CC [Compound 406],56.3
8,CCn1c(Oc2ccc3cc[nH]c3c2)nnc1[C@@H](C)NS(=O)(=O)c1ccc(Br)cc1C [Compound 407],68.2
9,CCn1c(Oc2ccc3cc[nH]c3c2)nnc1[C@@H](C)NS(=O)(=O)c1ccc(F)c(F)c1F [Compound 409],74.7
10,CCn1c(Oc2ccc3cc[nH]c3c2)nnc1[C@@H](C)NS(=O)(=O)c1cc(F)c(F)cc1Cl [Compound 412],82.5
11,CCn1c(Oc2ccc3cc[nH]c3c2)nnc1[C@@H](C)NS(=O)(=O)c1ccc(F)c(F)c1 [Compound 413],95.3
12,CCn1c(Oc2ccc3cc[nH]c3c2)nnc1[C@@H](C)NS(=O)(=O)c1ccc(Br)cc1F [Compound 414],92.5
13,CCn1c(Oc2ccc3cc[nH]c3c2)nnc1[C@@H](C)NS(=O)(=O)c1cc(F)c(Cl)cc1F [Compound 415],91.5
14,CCn1c(Oc2ccc3cc[nH]c3c2)nnc1[C@@H](C)NS(=O)(=O)c1cc(Br)c(F)cc1F [Compound 416],83.2
15,CCn1c(Oc2ccc3cc[nH]c3c2)nnc1[C@@H](C)NS(=O)(=O)c1cc(Cl)c(F)cc1F [Compound 417],90.8
16,CCn1c(Oc2ccc3cc[nH]c3c2)nnc1[C@@H](C)NS(=O)(=O)c1c(F)c(Br)cc(F)c1Br [Compound 420],61
17,CCn1c(Oc2ccc3cc[nH]c3c2)nnc1[C@@H](C)NS(=O)(=O)c1cc(C(F)(F)F)ccc1Cl [Compound 422],83.1
18,CCn1c(Oc2ccc3cc[nH]c3c2)nnc1[C@@H](C)NS(=O)(=O)c1cccc(F)c1 [Compound 423],87.8
19,CCn1c(Oc2ccc3cc[nH]c3c2)nnc1[C@@H](C)NS(=O)(=O)c1cc(Cl)ccc1OC [Compound 425],90.1
20,CCn1c(Oc2ccc3cc[nH]c3c2)nnc1[C@@H](C)NS(=O)(=O)c1c(C)cc(Cl)cc1Cl [Compound 426],92.3
21,CCn1c(Oc2ccc3cc[nH]c3c2)nnc1[C@@H](C)NS(=O)(=O)c1cc(F)c(F)cc1F [Compound 427],86.5
22,CCn1c(Oc2ccc3cc[nH]c3c2)nnc1[C@@H](C)NS(=O)(=O)c1cc(Br)ccc1Br [Compound 428],81.4
23,CCn1c(Oc2ccc3cc[nH]c3c2)nnc1[C@@H](C)NS(=O)(=O)c1ccc(-c2ccno2)s1 [Compound 429],71.1
24,CCn1c(Oc2ccc3cc[nH]c3c2)nnc1[C@@H](C)NS(=O)(=O)Cc1cccc(Cl)c1 [Compound 430],50

# Further lines, results first:
row,inhibition at 10 µM [%],SMILES
1,80.5,CCn1c(Oc2ccc3cc[nH]c3c2)nnc1[C@@H](C)NS(=O)(=O)c1ccc(Br)cc1Br [Compound 431]
2,84.2,CCn1c(Oc2ccc3cc[nH]c3c2)nnc1[C@@H](C)NS(=O)(=O)c1ccc(F)c(C#N)c1 [Compound 432]
3,93.8,CCn1c(Oc2ccc3cc[nH]c3c2)nnc1[C@@H](C)NS(=O)(=O)c1cc(C)cc(C)c1 [Compound 433]
4,79.5,CCn1c(Oc2ccc3cc[nH]c3c2)nnc1[C@@H](C)NS(=O)(=O)c1ccc(OC(F)F)cc1 [Compound 434]
5,94.6,CCn1c(Oc2ccc3cc[nH]c3c2)nnc1[C@@H](C)NS(=O)(=O)c1cccc(OC(F)F)c1 [Compound 435]
6,67.5,CCn1c(Oc2ccc3cc[nH]c3c2)nnc1[C@@H](C)NS(=O)(=O)c1c(F)cc(F)cc1Br [Compound 436]
7,97.3,CCn1c(Oc2ccc3cc[nH]c3c2)nnc1[C@@H](C)NS(=O)(=O)c1cc(F)cc(F)c1 [Compound 437]
8,71.6,CCn1c(Oc2ccc3cc[nH]c3c2)nnc1[C@@H](C)NS(=O)(=O)c1ccc(Cl)cc1F [Compound 438]
9,98.1,CCn1c(Oc2ccc3cc[nH]c3c2)nnc1[C@@H](C)NS(=O)(=O)c1cc(F)c(F)c(F)c1 [Compound 439]
10,88.4,CCn1c(Oc2ccc3cc[nH]c3c2)nnc1[C@@H](C)NS(=O)(=O)c1ccc(Br)c(C)c1 [Compound 440]
11,63,CCn1c(Oc2ccc3cc[nH]c3c2)nnc1[C@@H](C)NS(=O)(=O)c1ccc(F)cc1Br [Compound 441]
12,70.1,CCn1c(Oc2ccc3cc[nH]c3c2)nnc1[C@@H](C)NS(=O)(=O)c1ccc(C(F)(F)F)cc1Br [Compound 442]
13,55.7,CCn1c(Oc2ccc3cc[nH]c3c2)nnc1[C@@H](C)NS(=O)(=O)c1cc(C(F)(F)F)ccc1Br [Compound 443]
14,100,CCn1c(Oc2ccc3cc[nH]c3c2)nnc1[C@@H](C)NS(=O)(=O)c1ccc(C)c(F)c1 [Compound 444]
15,55.6,CCn1c(Oc2ccc3cc[nH]c3c2)nnc1[C@@H](C)NS(=O)(=O)c1ccc(F)cc1C [Compound 445]
16,75.8,CCn1c(Oc2ccc3cc[nH]c3c2)nnc1[C@@H](C)NS(=O)(=O)c1cc(Cl)ccc1F [Compound 446]
17,95.5,CCn1c(Oc2ccc3cc[nH]c3c2)nnc1[C@@H](C)NS(=O)(=O)c1ccc(Br)c(F)c1 [Compound 447]
18,81.1,CCn1c(Oc2ccc3cc[nH]c3c2)nnc1[C@@H](C)NS(=O)(=O)c1ccc(Br)cc1Cl [Compound 448]
19,76.8,CCn1c(Oc2ccc3cc[nH]c3c2)nnc1[C@@H](C)NS(=O)(=O)c1cc(C)ccc1F [Compound 451]

row,inhibition at 10 µM [%],SMILES
1,68.9,CCn1c(Oc2ccc3cc[nH]c3c2)nnc1[C@@H](C)NS(=O)(=O)c1cccc(Cl)c1F [Compound 452]
2,83.8,CCn1c(Oc2ccc3cc[nH]c3c2)nnc1[C@@H](C)NS(=O)(=O)CC1CCCCC1 [Compound 458]
3,53.2,CCn1c(Oc2ccc3cc[nH]c3c2)nnc1[C@@H](C)NS(=O)(=O)c1cc(C)oc1C(F)(F)F [Compound 460]
4,99.7,CCn1c(Oc2ccc3cc[nH]c3c2)nnc1[C@@H](C)NS(=O)(=O)c1ccc2c(c1)OCCO2 [Compound 461]
5,87.9,CCn1c(Oc2ccc3cc[nH]c3c2)nnc1[C@@H](C)NS(=O)(=O)c1ccc2nsnc2c1 [Compound 464]
6,51.1,CCn1c(Oc2ccc3cc[nH]c3c2)nnc1[C@@H](C)NS(=O)(=O)c1ccsc1 [Compound 466]
7,59.9,CCn1c(Oc2ccc3cc[nH]c3c2)nnc1[C@@H](C)NS(=O)(=O)c1ccc(-c2cnco2)s1 [Compound 467]
8,56.2,CCn1c(Oc2ccc3cc[nH]c3c2)nnc1[C@@H](C)NS(=O)(=O)c1cnn(-c2ccccc2)c1C [Compound 468]
9,55.3,CCn1c(Oc2ccc3cc[nH]c3c2)nnc1[C@@H](C)NS(=O)(=O)c1cc(C)sc1C [Compound 472]
10,74.5,CCn1c(Oc2ccc3cc[nH]c3c2)nnc1[C@@H](C)NS(=O)(=O)c1ccc(OC)cc1OC [Compound 473]
11,51.8,CCn1c(Oc2ccc3cc[nH]c3c2)nnc1[C@@H](C)NS(=O)(=O)c1ccc(C(F)(F)F)cc1Cl [Compound 475]
12,58.1,CCn1c(Oc2ccc3cc[nH]c3c2)nnc1[C@@H](C)NS(=O)(=O)c1cccc(C(C)=O)c1 [Compound 477]
13,87,CCn1c(Oc2ccc3cc[nH]c3c2)nnc1[C@@H](C)CS(=O)(=O)c1ccc(F)c2ccccc12 [Compound 478]
14,87.4,CCc1ccc(OC)c(S(=O)(=O)N[C@H](C)c2nnc(Oc3ccc4cc[nH]c4c3)n2CC)c1 [Compound 482]
15,65.3,CCn1c(Oc2ccc3cc[nH]c3c2)nnc1[C@@H](C)NS(=O)(=O)c1ccc(Cl)c(S(N)(=O)=O)c1 [Compound 484]
16,62.5,CCn1c(Oc2ccc3cc[nH]c3c2)nnc1[C@@H](C)NS(=O)(=O)c1ccc(Br)c(C(F)(F)F)c1 [Compound 488]
17,83.1,CCn1c(Oc2ccc3cc[nH]c3c2)nnc1[C@@H](C)NS(=O)(=O)c1cc2ccccc2s1 [Compound 493]
18,66,CCn1c(Oc2ccc3cc[nH]c3c2)nnc1[C@@H](C)NS(=O)(=O)c1csc2ccccc12 [Compound 494]
19,104,CCn1c(Oc2cccc(N3CCN(C)CC3)c2)nnc1[C@@H](C)NS(=O)(=O)c1ccc(C(C)=O)cc1 [Compound 497]

# Same assay, conditions: test compound at 10 μM; inhibition of [33P]-S1P binding to the membrane fraction of HEK-293 cells expressing human Edg-1 (S1P1)
row,SMILES,inhibition at 10 µM [%]
1,CCn1c(Oc2ccc3cc[nH]c3c2)nnc1[C@@H](C)NS(=O)(=O)c1cc(Br)ccc1OC [Compound 389],88
2,CCn1c(Oc2ccc3cc[nH]c3c2)nnc1[C@@H](C)NS(=O)(=O)c1cc(F)ccc1C [Compound 390],65.9
3,CCn1c(Oc2ccc3cc[nH]c3c2)nnc1[C@@H](C)NS(=O)(=O)c1c(C)c(C)c(C)c(C)c1C [Compound 391],80.4
4,CCn1c(Oc2ccc3cc[nH]c3c2)nnc1[C@@H](C)NS(=O)(=O)c1ccc(Br)c(Br)c1 [Compound 392],73.6
5,CCn1c(Oc2ccc3cc[nH]c3c2)nnc1[C@@H](C)NS(=O)(=O)c1cc(C)ccc1OC [Compound 393],79.7
